Assay results from publication PMC13198257, “An aerosolized dual-action autotaxin inhibitor-PPARγ agonist for the treatment of pulmonary fibrosis” (Cell Reports Medicine, 2026).

Test system: lung gene expression
Test: RNA sequencing of lung tissue (BLM/EL244 vs BLM)
Format: in vivo, mouse
Details: lung tissue, BLM/EL244 vs BLM
Procedure: RNA quality was assessed using an Agilent TapeStation 4150 with the High Sensitivity […] ScreenTape (Agilent), according to the manufacturer’s protocols. For library preparation, the QuantSeq 3’mRNA-Seq Library Prep Kit (Lexogen) was used according to manufacturer’s instructions. Briefly, 500 ng of RNA from each sample was used for first-strand synthesis, followed by RNA template removal, and second-strand synthesis initiated by random primers. In-line barcodes were introduced at this step, and this was followed by magnetic bead-based purification. The resulting libraries were amplified for 15 cycles and re-purified, with quantity and quality assessed on a Qubit 4 Fluorometer with the Invitrogen Qubit dsDNA HS Assay and an Agilent Tapestation 4150 with the High Sensitivity D1000 assay kit, respectively. The quantified libraries were pooled equimolarly; 50ng of total library mix was used for Adapter Conversion PCR Amplification using the Universal Library Conversion Kit (App-A), Version: V1.0 (MGI Tech Co., Ltd.), according to the manufacturer’s instructions.
The quantity and quality of the purified adapter conversion PCR (AC-PCR) product were evaluated on a Qubit 4 Fluorometer with the Invitrogen Qubit dsDNA HS Assay and on an Agilent Tapestation 4150 with the High Sensitivity D1000 assay kit, respectively. This was followed by DNA denaturation, Single-Strand Circularisation, Enzymatic Digestion, Enzymatic Digestion Product Cleanup and Quality Control steps on 1 pmol of AC-PCR product, according to the Universal Library Conversion Kit (App-A) User Manual (Version: A3).
Finally, 60 fmol of ssCirDNA were used for DNB preparation and sequencing on a DNBSEQ-G400 platform at the BSRC Alexander Fleming Genomics Facility, using a G400 App-A FCS SE100 High-throughput Sequencing Set (MGI Tech Co., Ltd.), according to the manufacturer’s instructions.
Alignment of the FASTQ files was performed against the mouse genome build mm10 using a custom Bash script.[143] Read counting on the 3′ UTRs and differential expression analysis were conducted using the metaseqR2 bioconductor package.[144] Genes corresponding to the following biotypes were excluded: polymorphic_pseudogene, processed_transcript, pseudogene, IG_V_pseudogene, misc_RNA, IG_C_gene, IG_J_gene, IG_D_gene, IG_LV_gene, TR_V_gene, TR_V_pseudogene, TEC, and processed_pseudogene. Gene counts were normalized with DESEQ[145] through metaseqR2. Genes with more than 10 counts in at least 50% of the samples were kept for further processing. For differential expression analysis, the PANDORA algorithm[146] was used to estimate a meta p-value integrating the results from the DESEQ, DESEQ2,[147] edgeR,[148] limma,[149] NBPSeq,[150] and NOISeq[151] algorithms. All additional parameters were set to default values.
Pathway enrichment analysis was performed for the Gene Ontology Biological process (BP) and Molecular Function (MF) terms through GeneCodis 4.[152] The volcano plots, scatterplots, Venn diagrams, and dot plots were generated using the ggplot2 Bioconductor package.

Structure (SMILES): O=C1NC(=O)C(Cc2ccc(OCCC3CCN(C(=O)OCc4cc(Cl)cc(Cl)c4)CC3)cc2)S1 (stereo not shown) [EL244, 3,5-dichlorobenzyl 4-(2-(4-((2,4-dioxothiazolidin-5-yl)methyl)phenoxy)ethyl)piperidine-1-carboxylate]
- Prrx2 nFC: 0.30
- Prss23 log2 nFC: 0.67
- Prss23 nFC: 1.60
- Ptprb log2 nFC: 0.67
- Ptprb nFC: 1.59
- Rad51 log2 nFC: -1.90
- Rad51 nFC: 0.27
- Rad54l log2 nFC: -1.87
- Rad54l nFC: 0.27
- Rbm33 log2 nFC: 0.58
- Rbm33 nFC: 1.50
- Rcan1 log2 nFC: -0.84
- Rcan1 nFC: 0.56
- Rcn3 log2 nFC: -0.66
- Rcn3 nFC: 0.63
- Retnla log2 nFC: -2.32
- Retnla nFC: 0.20
- Rgs16 log2 nFC: -2.59
- Rgs16 nFC: 0.17
- Rnaset2a log2 nFC: -0.70
- Rnaset2a nFC: 0.62
- Rps27l log2 nFC: -0.70
- Rps27l nFC: 0.62
- Rrm1 log2 nFC: -0.81
- Rrm1 nFC: 0.57
- Rrm2 log2 nFC: -2.56
- Rrm2 nFC: 0.17
- S100a11 log2 nFC: -0.60
- S100a11 nFC: 0.66
- Saa3 log2 nFC: -2.75
- Saa3 nFC: 0.15
- Sash1 log2 nFC: 0.59
- Sash1 nFC: 1.50
- Scarb1 log2 nFC: -0.72
- Scarb1 nFC: 0.61
- Scgb3a2 log2 nFC: 0.65
- Scgb3a2 nFC: 1.56
- Selenop log2 nFC: 0.58
- Selenop nFC: 1.50
- Sfrp1 log2 nFC: -1.73
- Sfrp1 nFC: 0.30
- Sftpc log2 nFC: 0.62
- Sftpc nFC: 1.54
- Sgo2a log2 nFC: -1.68
- Sgo2a nFC: 0.31
- Sh3pxd2b log2 nFC: -0.78
- Sh3pxd2b nFC: 0.58
- Shcbp1 log2 nFC: -1.60
- Shcbp1 nFC: 0.33
- Sirpa log2 nFC: -0.71
- Sirpa nFC: 0.61
- Ska1 log2 nFC: -2.52
- Ska1 nFC: 0.17
- Slc7a11 log2 nFC: -1.50
- Slc7a11 nFC: 0.35
- Slc36a1 log2 nFC: -0.81
- Slc36a1 nFC: 0.57
- Slc39a1 log2 nFC: -0.63
- Slc39a1 nFC: 0.65
- Snrnp40 log2 nFC: -0.60
- Snrnp40 nFC: 0.66
- Snrpd1 log2 nFC: -0.64
- Snrpd1 nFC: 0.64
- Socs3 log2 nFC: -0.62
- Socs3 nFC: 0.65
- Sox4 log2 nFC: -0.80
- Sox4 nFC: 0.57
- Sox9 log2 nFC: -1.42
- Sox9 nFC: 0.37
- Spag5 log2 nFC: -1.65
- Spag5 nFC: 0.32
- Sparc log2 nFC: -0.74
- Sparc nFC: 0.60
- Spc25 log2 nFC: -2.02
- Spc25 nFC: 0.25
- Spp1 log2 nFC: -1.50
- Spp1 nFC: 0.35
- Ssc5d log2 nFC: -1.71
- Ssc5d nFC: 0.31
- Ssh2 log2 nFC: 0.66
- Ssh2 nFC: 1.58
- Sting1 log2 nFC: -0.77
- Sting1 nFC: 0.59
- Stmn1 log2 nFC: -0.70
- Stmn1 nFC: 0.62
- Stxbp6 log2 nFC: 0.64
- Stxbp6 nFC: 1.56
- Tacc2 log2 nFC: 0.66
- Tacc2 nFC: 1.57
- Taf10 log2 nFC: -0.59
- Taf10 nFC: 0.67
- Tceal9 log2 nFC: -0.69
- Tceal9 nFC: 0.62
- Tcf19 log2 nFC: -1.42
- Tcf19 nFC: 0.37
- Tfdp1 log2 nFC: -0.74
- Tfdp1 nFC: 0.60
- Tgfbi log2 nFC: -0.68
- Tgfbi nFC: 0.62
- Tgif1 log2 nFC: -0.75
- Tgif1 nFC: 0.60
- Thbs4 log2 nFC: -2.34
- Thbs4 nFC: 0.20
- Thoc6 log2 nFC: -0.81
- Thoc6 nFC: 0.57
- Timm44 log2 nFC: -0.72
- Timm44 nFC: 0.61
- Timp1 log2 nFC: -2.30
- Timp1 nFC: 0.20
- Tk1 log2 nFC: -2.01
- Tk1 nFC: 0.25
- Tmem37 log2 nFC: -0.82
- Tmem37 nFC: 0.57
- Tmem252 log2 nFC: -0.70
- Tmem252 nFC: 0.62
- Tmsb10 log2 nFC: -0.58
- Tmsb10 nFC: 0.67
- Tnc log2 nFC: -2.35
- Tnc nFC: 0.20
- Tnfrsf1b log2 nFC: -0.70
- Tnfrsf1b nFC: 0.61
- Tnip3 log2 nFC: -1.47
- Tnip3 nFC: 0.36
- Tns1 log2 nFC: 0.67
- Tns1 nFC: 1.59
- Top2a log2 nFC: -1.97
- Top2a nFC: 0.25
- Tpx2 log2 nFC: -2.92
- Tpx2 nFC: 0.13
- Trem2 log2 nFC: -1.42
- Trem2 nFC: 0.37
- Trip13 log2 nFC: -1.42
- Trip13 nFC: 0.37
- Tspan7 log2 nFC: 0.64
- Tspan7 nFC: 1.56
- Tubb5 log2 nFC: -0.77
- Tubb5 nFC: 0.59
- Tubb6 log2 nFC: -0.75
- Tubb6 nFC: 0.59
- Txnip log2 nFC: 0.65
- Txnip nFC: 1.56
- Tyrobp log2 nFC: -0.69
- Tyrobp nFC: 0.62
- Ube2c log2 nFC: -1.80
- Ube2c nFC: 0.29
- Uhrf1 log2 nFC: -1.72
- Uhrf1 nFC: 0.30
- Utrn log2 nFC: 0.68
- Utrn nFC: 1.60
- Vangl2 log2 nFC: -0.76
- Vangl2 nFC: 0.59
- Xcl1 log2 nFC: -1.81
- Xcl1 nFC: 0.29
- Zfp46 log2 nFC: -0.70
- Zfp46 nFC: 0.62
- Zranb3 log2 nFC: -1.43
- Zranb3 nFC: 0.37
- Zwilch log2 nFC: -1.54
- Zwilch nFC: 0.34
- log2 nFC 1500009L16Rik: -1.23
- log2 nFC 2200002D01Rik: -0.88
- log2 nFC AA467197: -1.39
- log2 nFC Adamts2: -1.00
- log2 nFC Areg: -1.03
- log2 nFC Arhgap11a: -1.13
- log2 nFC Armcx4: -1.32
- log2 nFC Asf1b: -1.14
- log2 nFC Bcl2a1b: -1.15
- log2 nFC Bcl2a1d: -1.29
- log2 nFC Bub1b: -1.19
- log2 nFC C1qtnf5: -0.87
- log2 nFC C1qtnf6: -1.38
- log2 nFC Ccdc8: -1.11
- log2 nFC Ccl9: -1.37
- log2 nFC Ccl17: -0.95
- log2 nFC Cd68: -0.99
- log2 nFC Cd72: -1.01
- log2 nFC Cd248: -1.25
- log2 nFC Cd300c2: -0.89
- log2 nFC Cdca2: -1.33
- log2 nFC Cenpa: -1.31
- log2 nFC Cenpw: -1.33
- log2 nFC Cercam: -1.37
- log2 nFC Ch25h: -0.91
- log2 nFC Cilp: -1.39
- log2 nFC Clcn5: -0.92
- log2 nFC Clec4a2: -1.26
- log2 nFC Clec4n: -1.39
- log2 nFC Clec5a: -1.14
- log2 nFC Clec11a: -1.00
- log2 nFC Clec12a: -0.91
- log2 nFC Col1a2: -1.41
- log2 nFC Col8a1: -1.19
- log2 nFC Col12a1: -0.90
- log2 nFC Col15a1: -1.10
- log2 nFC Col16a1: -0.92
- log2 nFC Cotl1: -0.88
- log2 nFC Csf2rb2: -0.99
- log2 nFC Cstb: -0.95
- log2 nFC Ctsk: -0.98
- log2 nFC Ctss: -0.92
- log2 nFC Cx3cr1: -1.17
- log2 nFC Cyp7b1: -1.41
- log2 nFC Dbn1: -0.88
- log2 nFC Dclk1: -0.86
- log2 nFC Diaph3: -1.13
- log2 nFC Dio2: -1.39
- log2 nFC Dok2: -1.37
- log2 nFC Dut: -0.89
- log2 nFC Egr2: -0.89
- log2 nFC Epha4: -0.89
- log2 nFC F10: -1.11
- log2 nFC Fam20c: -1.06
- log2 nFC Fbn1: -1.03
- log2 nFC Fcgr1: -1.30
- log2 nFC Fcgr2b: -1.08
- log2 nFC Fcrls: -1.35
- log2 nFC Fen1: -1.00
- log2 nFC Fgf13: -1.40
- log2 nFC Fkbp10: -1.25
- log2 nFC Fndc1: -1.11
- log2 nFC Fscn1: -1.22
- log2 nFC Fst: -1.05
- log2 nFC Fstl1: -1.21
- log2 nFC Gas2l3: -1.32
- log2 nFC Gm13889: -0.85
- log2 nFC Gm25380: -1.01
- log2 nFC Gm42674: -1.18
- log2 nFC Gm49339: -0.94
